# According to US20110117164A1, “Use of Additive Sites to Control Nitric Oxide Release from Nitric Oxide Donors Contained within Polymers” (priority 2004, published 2011):
# What was measured:
# [1] = Air stability of isolated intramolecular diazeniumdiolates; format: physicochemical
# Protocol: The reaction of NO with 1f yielded a diazeniumdiolate (as determined by UV) that was initially air-stable, but decomposed after 12 hours even with storage at −20° C. […] Thus, the most air-stable intramolecular diazeniumdiolate that could be isolated was that of diamine 1e. Air stable bis-diazeniumdiolates of 1f and 1g may, however, be prepared when an exogenous base such as sodium methoxide is present in the reaction mixture.
# [2] = in vivo; cited from earlier work
# [3] = test system: cells after vascular injury; settings: cited from earlier work
# [4] = Thermal gravimetric analysis under nitrogen (thermal stability of diazeniumdiolates); format: physicochemical; settings: nitrogen atmosphere
# [5] = for t1/2 ("apparent" t1/2 and t1/2): buffer, pH 7.4; for k: first order decomposition, PBS buffer, pH 7.4, 37° C., n > 3
# [6] = NO release from polymer films/coatings containing NO donor in PBS buffer at 37° C. by chemiluminescence; format: physicochemical; settings: ~5 wt. % in PVC film plasticized with DOS (1:2), PBS buffer, 37° C., no KTpClPB
# Protocol: Thermal stability of diazeniumdiolates. […] Kinetics. […] Use in Hydrophobic Systems.
# In the absence of the KTpClPB, NO release decreases dramatically after approximately 1 hour. […] The decrease in NO release observed is believed to result from an increase in the pH within the organic polymer film, which decreases the decomposition rate of lipophilic diazeniumdiolates. As water diffuses into the film initiating NO release, secondary amine sites result. The secondary amine sites have a higher pKa than water and therefore deprotonate water to form hydroxide ions. The basic microdomain environment that results within the polymer, in turn, slows further decomposition of the remaining diazeniumdiolates that would generate NO. This retardation may occur as a result of the organic ammonium hydroxide microphases within the polymer, which in turn serves to stabilize the remaining diazeniumdiolates.
# FT-IR were collected on Perken Elmer Spectrum VX. […] Elemental analyses were performed. Reagents. […] NO was purchased from Matheson Gases. […] General NO Addition Procedure. […] The products were finally collected and dried under vacuum. Molar Extinction Coefficients. […] The maximum wavelength and absorbance were collected. […] Kinetics Studies. […] The NO released was measured using chemiluminescence. […] Preparation of Polymer Films Containing Diazeniumdiolates. […] The membranes were covered and allowed to cure overnight. […] Polymerization to Form Boc-protected Diamine Copolymer.
# General Procedure for Deprotection to Form Diamine Copolymer (c). 35 mg of the copolymer (b) was dissolved in 2 mL of dichloromethane and then 200 μL of TFA (trifluoroacetic acid) was added dropwise. The solution was stirred at room temperature for about 3 hours. The reaction mixture was diluted with 20 mL of dichloromethane, and the organic phase was then washed with sodium bicarbonate, water, and brine, and was dried with sodium sulfate. The solvent was evaporated and the resulting copolymer was dried under vacuum overnight. ^1H-NMR was performed to confirm the structure and actual composition of the copolymer. General Procedure for NO Loading to Form Polymer-Based NO Donor (d). 20 mg of the deprotected copolymer (c) was dissolved in 3 mL of dry THF and placed in a high pressure reactor with a stirring bar, and flushed with argon for about 10 minutes. 100% excess of sodium methoxide (with respect to free amine sites) was added and the reactor was closed. The reactor was purged with argon again for several times (e.g. ten times) over a 1 hour period and was charged with NO at 80 psi. The reaction mixture was stirred for 72 hours at room temperature. After the reaction was complete, the copolymer was precipitated with dry hexane under argon. The remaining solvent was removed using a vacuum, and the diazeniumdiolated copolymers (d) were examined by UV-Vis spectrum as well as NOA. This resulting copolymer was stored in sealed vials charged with argon in a freezer. Preparation of Polymer Films Containing Polymer-Based No Donor. Polymer membranes containing the polymer-based NO donor was prepared by dissolving 60.8 mg poly(vinyl chloride) (PVC), 30.4 mg dioctyl sebacate (DOS), and 9.1 mg poly(lactide-co-glycolide) (50:50) (PLGA 50:50) in 1.5 mL of freshly distilled tetrahydrofuran. […] A trilayer film configuration is employed to fabricate films. […] Four hours later the polymer cocktail was cast on top of the PVC layer. After another 4 hours, the PVC solution was cast again as a finish layer. The membrane was covered and allowed to cure overnight. Polymer films containing no additives were prepared in a similar manner. […] NO Release Measurements by Chemiluminescence. All NO measurements were performed using a Sievers Nitric Oxide Analyzer (NOA), model 280. The instrument was calibrated before each experiment using an internal two-point calibration (zero gas and 45 PPM). The flow rate was set to 200 mL/min with a cell pressure of 5.4 torr and an oxygen pressure of 6.0 psig. […]
# [7] = test system: thrombus formation; settings: dispersed in a silicone rubber matrix; cited from earlier work
# [8] = test system: platelet activity; settings: within a polymer coating on the inner walls of extracorporeal circuits; cited from earlier work
# [9] = donor and its diamine precursor; back react to potentially toxic nitrosamines; cited from earlier work
SMILES,TNO loss (stable up to) [4],"t1/2 (""apparent"" t1/2 and t1/2) [5]",k [5],other results
"CCCCCCCCCCCCN(CCCCCCN)CCCCCCCCCCCC [Compound 1g, N,N-didodecylhexamethylene diamine]",,,,air stability during work-up ([1]; presence of oxygen during the work-up procedure): immediately decomposes
O=C([O-])C1CCCN1[N+]([O-])=N[O-].[Na+].[Na+] (centres unmarked) [PROLI/NO],,,,effect when infused into blood [2]: relieve muscle spasms
NCCN(CCN)/[N+]([O-])=N/O [DETA/NO],,,,effect on cell proliferation after vascular injury [3]: substantially suppress overproliferation of cells after vascular injury
"CCCCCCN(CCCCCC)CCCCCCN [Compound 1f, N,N-dihexylhexamethylene diamine]",,,,time to decomposition of the initially air-stable diazeniumdiolate ([1]; even with storage at −20° C.): 12 h
"CCCCCNCCCCCCN(CCCCC)/[N+]([O-])=N/O [Compound 2e, (Z)-1-{N-Pentyl-N-[6-(N-pentylammoniohexyl)amino]}-diazen-1-ium-1,2-diolate]",104 °C,4.65 ± 0.517 min,0.0025 ± 0.0001 s⁻¹,
"CCCNCCCCCCN(CCC)/[N+]([O-])=N/O [Compound 2c, (Z)-1-{N-Propyl-N-[6-(N-propylammoniohexyl)amino]}-diazen-1-ium-1,2-diolate]",104 °C,5.32 ± 0.383 min,0.0022 ± 0.0001 s⁻¹,

# The next lines start with results.
TNO loss (stable up to) [4],"t1/2 (""apparent"" t1/2 and t1/2) [5]",SMILES,k [5],other results
104 °C,5.78 ± 0.433 min,"CCNCCCCCCN(CC)/[N+]([O-])=N/O [Compound 2b, (Z)-1-{N-Ethyl-N-[6-(N-ethylammoniohexyl)amino]}diazen-1-ium-1,2-diolate]",0.0020 ± 0.0001 s⁻¹,
104 °C,1.12 ± 0.012 min,"CNCCCCCCN(C)/[N+]([O-])=N/O [Compound 2a, (Z)-1-[N-methyl-N-[6-(N-methylammoniohexyl)amino]]-diazen-1-ium-1,2-diolate]",0.010 ± 0.0001 s⁻¹,total NO release profile from film without additive [6]: releases all of its NO in a short period of time; effect on thrombus formation [7]: prevent thrombus formation on the surface of intravascular sensors; effect on platelet activity [8]: greatly reduce platelet activity; leaching from polymer matrix [9]: tend to leach from the surface of the polymer matrix
